14 compounds from publication PMC9000336, “Development of Bicyclo[3.1.0]hexane-Based A3 Receptor Ligands: Closing the Gaps in the Structure–Affinity Relationships” (Molecules, 2022) can be followed below.

SMILES strings stand for the structures.

Assay [1] concerns the target T1, human adenosine A3 receptor (Homo sapiens, UniProt P0DMS8).
T1 construct: expressed in transfected cells; host or cells: CHO cells (CHOhA3R), gift of Dr. K.-N. Klotz (University of Würzburg); membrane preparation
T1 sequence (P0DMS8 1-318): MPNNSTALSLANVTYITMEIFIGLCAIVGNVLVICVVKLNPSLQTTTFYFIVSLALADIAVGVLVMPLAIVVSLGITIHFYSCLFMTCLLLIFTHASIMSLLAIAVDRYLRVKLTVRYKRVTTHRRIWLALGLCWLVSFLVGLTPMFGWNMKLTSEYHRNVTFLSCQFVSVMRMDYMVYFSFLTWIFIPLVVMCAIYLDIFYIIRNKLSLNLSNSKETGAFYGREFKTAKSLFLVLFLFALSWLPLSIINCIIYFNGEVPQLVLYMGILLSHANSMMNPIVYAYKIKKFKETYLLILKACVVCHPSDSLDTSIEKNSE
The experiment in a line: Radioligand displacement assay, human adenosine A3 receptor ([3H]PSB11, CHOhA3R membranes). To be noted: for inhibition at 10 µM: test compound 10 µM; for inhibition at 10 µM / Ki: n = 3; for Ki: [3H]PSB11, read-out: A3 Ki ± SEM. The format is binding. On the procedure:
Chinese hamster ovary (CHO) cells stably expressing the human adenosine A1 receptor (CHOhA1R) were kindly provided by Prof. S. J. Hill and CHO cells stably expressing the human adenosine A3 receptor (CHOhA3R) were a gift from Dr. K.-N. Klotz (University of Würzburg, Germany). Chinese hamster ovary cells stably expressing the human A1-receptor (CHOhA1R) or the human A3-receptor (CHOhA3R) were grown in Dulbecco’s Modified Eagle’s Medium (DMEM) and Ham’s F12 medium (1:1) supplemented with 10% (v/v) newborn calf serum, 50 µg/mL streptomycin, 50 IU/mL penicillin, and 200 µg/mL G418 at 37 °C and 5% CO2. […] All cells were grown to 80–90% confluency and detached from plates by scraping them into 5 mL phosphate-buffered saline. Detached cells were collected and centrifuged at 200 g for 5 min. Pellets derived from 100 15 cm Ø plates were pooled and resuspended in 70 mL of ice-cold 50 mM tris(hydroxymethyl)aminomethane (Tris)-HCl buffer, pH 7.4. A Heidolph Diax 900 homogenizer was used to homogenize the cell suspension. Membranes and the cytosolic fraction were separated by centrifugation at 100,000 g in a Beckman Optima LE-80 K ultracentrifuge (Beckman Coulter, Fullerton, CA, USA) at 4 °C for 20 min. The pellet was resuspended in 35 mL of the Tris-HCl buffer, and the homogenization and centrifugation steps were repeated. Tris-HCl buffer (25 mL) was used to resuspend the pellet, and adenosine deaminase (ADA) was added (0.8 U/mL) to break down endogenous adenosine. Membranes were stored in 250 µL and 500 µL aliquots at −80 °C. Total protein concentrations were measured using the bicinchoninic acid (BCA) method.
A3 Receptor: Membrane aliquots containing 15 µg (CHOhA3R) total protein were incubated in a total volume of 100 µL assay buffer (50 mM Tris-HCl, pH 8.0, supplemented with 10 mM MgCl2, 1 mM EDTA and 0.01% (w/v) CHAPS) at 25 °C for 2 h. Radioligand displacement experiments were performed using six concentrations of competing ligand in the presence of 10 nM [^3H]8-ethyl-4-methyl-2-phenyl-(8R)-4,5,7,8-tetrahydro-1H-imidazo[2.1-i]purin-5-one ([^3H]PSB11). […] Nonspecific binding was determined in the presence of 100 µM NECA. Incubations were terminated by rapid vacuum filtration to separate the bound and free radioligand through prewetted 96-well GF/B filter plates using a PerkinElmer Filtermate-harvester (Perkin Elmer, Groningen, The Netherlands). Filters were subsequently washed 12 times with ice-cold 50 mM Tris-HCl supplemented with 10 mM MgCl2, and 1 mM EDTA, pH 8.0 for CHOhA3R.
(§1) The plates of all four adenosine receptor assays were dried at 55 °C after which MicroscintTM-20-cocktail was added (Perkin Elmer, Groningen, The Netherlands).
(§2) All experimental data were analyzed using the non-linear regression curve fitting program GraphPad Prism 7.0 (GraphPad Software Inc., San Diego, CA, USA). IC50 values obtained from competition displacement binding data were converted into Ki values using the Cheng–Prusoff equation.
A general note: In a radioligand displacement assay an active substance lowers the binding of a labelled ligand.

Assay [2] concerns the target T2, human adenosine A2A receptor (Homo sapiens, UniProt P29274).
T2 construct: expressed in transfected cells; host or cells: HEK293 cells (HEK293hA2AR), from Dr. J. Wang (Biogen/IDEC); membrane preparation
The experiment in a line: Radioligand displacement assay, human adenosine A2A receptor ([3H]ZM241385, HEK293hA2AR membranes). To be noted: for A2A displacement at 10 µM: test compound 10 µM; for A2A displacement at 10 µM / Ki: n = 3; for Ki: [3H]ZM241385, read-out: A2A Ki ± SEM. The format is binding. As for the experimental part: Human embryonic kidney 293 cells stably expressing the human adenosine A2A receptor (HEK293hA2AR) were kindly provided by Dr. J. Wang (Biogen/IDEC, Cambridge, MA, USA), CHO-spap cells stably expressing the wild-type (WT) hA2B receptor (CHO-spap-hA2BR) were kindly provided by S. J. Dowell (GlaxoSmithKline, Brentfort, UK).
All cells were grown to 80–90% confluency and detached from plates by scraping them into 5 mL phosphate-buffered saline. Detached cells were collected and centrifuged at 200 g for 5 min. Pellets derived from 100 15 cm Ø plates were pooled and resuspended in 70 mL of ice-cold 50 mM tris(hydroxymethyl)aminomethane (Tris)-HCl buffer, pH 7.4. A Heidolph Diax 900 homogenizer was used to homogenize the cell suspension. Membranes and the cytosolic fraction were separated by centrifugation at 100,000 g in a Beckman Optima LE-80 K ultracentrifuge (Beckman Coulter, Fullerton, CA, USA) at 4 °C for 20 min. The pellet was resuspended in 35 mL of the Tris-HCl buffer, and the homogenization and centrifugation steps were repeated. Tris-HCl buffer (25 mL) was used to resuspend the pellet, and adenosine deaminase (ADA) was added (0.8 U/mL) to break down endogenous adenosine. Membranes were stored in 250 µL and 500 µL aliquots at −80 °C. Total protein concentrations were measured using the bicinchoninic acid (BCA) method.
Nonspecific binding was determined in the presence of 100 µM adenosine-5-N-ethyluronamide (NECA). Incubations were terminated by rapid vacuum filtration to separate the bound and free radioligand through prewetted 96-well GF/B filter plates using a PerkinElmer Filtermate-harvester (Perkin Elmer, Groningen, The Netherlands). Filters were subsequently washed 12 times with ice-cold 50 mM Tris-HCl, pH 7.4.
as §1, §2

T2 sequence (P29274 whole entry): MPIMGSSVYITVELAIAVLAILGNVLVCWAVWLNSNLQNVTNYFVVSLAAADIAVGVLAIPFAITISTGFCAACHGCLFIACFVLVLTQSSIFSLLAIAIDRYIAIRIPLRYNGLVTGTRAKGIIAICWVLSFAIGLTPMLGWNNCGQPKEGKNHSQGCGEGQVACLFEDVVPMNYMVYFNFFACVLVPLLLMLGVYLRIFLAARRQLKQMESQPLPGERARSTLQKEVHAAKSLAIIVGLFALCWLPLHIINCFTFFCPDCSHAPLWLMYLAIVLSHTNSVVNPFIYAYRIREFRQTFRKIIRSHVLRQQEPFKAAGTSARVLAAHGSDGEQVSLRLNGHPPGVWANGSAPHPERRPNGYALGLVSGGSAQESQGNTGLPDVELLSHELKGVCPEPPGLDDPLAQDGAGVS

Compound `Nc1cc(Cl)c2ncn([C@H]3[C@H](O)[C@H](O)[C@]4(CO)C[C@H]34)c2n1` [Compound 11, (1R,2R,3S,4R,5S)-4-(5-Amino-7-chloro-3H-imidazo[4,5-b]pyridin-3-yl)-1-(hydroxymethyl)bicyclo[3.1.0]hexane-2,3-diol] displayed an inhibition at 10 µM in assay [1] of 4%. Besides, in assay [2], the “A2A displacement at 10 µM” value worked out at 4%.
Take `OC[C@@]12C[C@@H]1[C@@H](n1cnc3c(Cl)cc(Cl)nc31)[C@H](O)[C@@H]2O` [Compound 12, (1R,2R,3S,4R,5S)-4-(5,7-Dichloro-3H-imidazo[4,5-b]pyridin-3-yl)-1-(hydroxymethyl)bicyclo[3.1.0]hexane-2,3-diol]: the Ki in assay [1] and in assay [2] was greater than 10 µM throughout.
As to `OC[C@@]12C[C@@H]1[C@@H](n1cnc3c(NCc4ccccc4)cc(Cl)nc31)[C@H](O)[C@@H]2O` [Compound 13, (1R,2R,3S,4R,5S)-4-[7-(Benzylamino)-5-chloro-3H-imidazo[4,5-b]pyridin-3-yl]-1-(hydroxymethyl)bicyclo[3.1.0]hexane-2,3-diol], the Ki in assay [1] is 0.46 ± 0.02 µM. Further, the “A2A displacement at 10 µM” value in assay [2] is recorded as 13%.
Regarding `CSc1cc(NCc2ccccc2)c2ncn([C@H]3[C@H](O)[C@H](O)[C@]4(CO)C[C@H]34)c2n1` [Compound 14, (1R,2R,3S,4R,5S)-4-[7-(Benzylamino)-5-methylthio-3H-imidazo[4,5-b]pyridin-3-yl]-1-(hydroxymethyl)bicyclo[3.1.0]hexane-2,3-diol], the inhibition constant (Ki) in assay [1] was determined as 1.51 ± 0.03 µM. Moreover, the “A2A displacement at 10 µM” value in assay [2] worked out at 4%.
In the case of `COc1ccc(CNc2cc(Cl)nc3c2ncn3[C@H]2[C@H](O)[C@H](O)[C@]3(CO)C[C@H]23)cc1` [Compound 15, (1R,2R,3S,4R,5S)-4-{5-Chloro-7-[(4-methoxy)benzylamino]-3H-imidazo[4,5-b]pyridin-3-yl}-1-(hydroxymethyl)bicyclo[3.1.0]hexane-2,3-diol], in assay [1], the Ki worked out at 0.5 ± 0.01 µM. For the same compound, in assay [2], the “A2A displacement at 10 µM” value is given as 2%.
With `Nc1cc(Cl)nc2c1ncn2[C@H]1[C@H](O)[C@H](O)[C@]2(CO)C[C@H]12` [Compound 16, (1R,2R,3S,4R,5S)-4-(7-Amino-5-chloro-3H-imidazo[4,5-b]pyridin-3-yl)-1-(hydroxymethyl)bicyclo[3.1.0]hexane-2,3-diol], in assay [1], the Ki amounted to 1.6 ± 0.11 µM. In addition, the “A2A displacement at 10 µM” value in assay [2] is given as 42%.
`CSc1cc(N)c2ncn([C@H]3[C@H](O)[C@H](O)[C@]4(CO)C[C@H]34)c2n1` [Compound 17, (1R,2R,3S,4R,5S)-4-(7-Amino-5-methylthio-3H-imidazo[4,5-b]pyridin-3-yl)-1-(hydroxymethyl)bicyclo[3.1.0]hexane-2,3-diol] showed an inhibition at 10 µM in assay [1] of 45%. Also, in assay [2], the “A2A displacement at 10 µM” value worked out at 3%.
With `OC[C@@]12C[C@@H]1[C@@H](n1cnc3c(N(Cc4ccccc4)Cc4ccccc4)ncnc31)[C@H](O)[C@@H]2O` [Compound 26, (1R,2R,3S,4R,5S)-4-[6-(Dibenzylamino)-9H-purin-9-yl]-1-(hydroxymethyl)bicyclo[3.1.0]hexane-2,3-diol], in assay [1], the “potency at the A3 receptor” value is “not potent” and the inhibition at 10 µM worked out at 8%. The “A2A displacement at 10 µM” value in assay [2] is given as 9%.
`OC[C@@]12C[C@@H]1[C@@H](n1cnc3c(N(Cc4ccccc4)Cc4ccccc4)nc(Cl)nc31)[C@H](O)[C@@H]2O` [Compound 27, (1R,2R,3S,4R,5S)-4-[6-(Dibenzylamino)-2-chloro-9H-purin-9-yl]-1-(hydroxymethyl)bicyclo[3.1.0]hexane-2,3-diol]: in assay [1], the “potency at the A3 receptor” value is on record as “not potent” and the inhibition at 10 µM stood at 4%. For the same compound, the Ki in assay [2] is greater than 10 µM.
`CSc1nc(N(Cc2ccccc2)Cc2ccccc2)c2ncn([C@H]3[C@H](O)[C@H](O)[C@]4(CO)C[C@H]34)c2n1` [Compound 30, (1R,2R,3S,4R,5S)-4-[6-(Dibenzylamino)-2-methylthio-9H-purin-9-yl]-1-(hydroxymethyl)bicyclo[3.1.0]hexane-2,3-diol]: the inhibition constant (Ki) in assay [1] was 0.38 ± 0.01 µM. Also, the “A3R selectivity” value in assay [1] (versus other P1 receptor subtypes) is given as “high A3R selectivity”. The “A2A displacement at 10 µM” value in assay [2] is 13%.
For the compound `CSc1nc(N(Cc2ccccc2)Cc2ccccc2)c2ncn([C@H]3[C@H](O)[C@H](O)[C@]4(CCl)C[C@H]34)c2n1` [Compound 31, (1S,2R,3S,4R,5S)-4-[6-(Dibenzylamino)-2-methylthio-9H-purin-9-yl]-1-(chloromethyl)bicyclo[3.1.0]hexane-2,3-diol], in assay [1], the “potency at the A3 receptor” value is “not potent” and the inhibition at 10 µM came out at 26%. The Ki in assay [2] is greater than 10 µM.
For the compound `Nc1ncnc2c1ncn2[C@H]1[C@H](O)[C@H](O)[C@]2(CO)C[C@H]12` [Compound 36, (N)-methanocarba adenosine], the values for the Ki in assay [1] and in assay [2] were 0.96 ± 0.05 µM and 1.81 ± 0.11 µM, respectively. For the same compound, the “fold lower affinity towards A2A receptor than A3” value in assay [2] (relative to A3 Ki) was 2 fold.
Take `CSc1nc(N)c2ncn([C@H]3[C@H](O)[C@H](O)[C@]4(Cn5cc(CO)nn5)C[C@H]34)c2n1` [Compound 39, (1R,2R,3S,4R,5S)-4-(6-Amino-2-methylthio-9H-purin-9-yl)-1-{[4-(hydroxymethyl)-1H-1,2,3-triazol-1-yl]methyl}bicyclo[3.1.0]hexane-2,3-diol]: the inhibition at 10 µM in assay [1] is 37%. In assay [2], the “A2A displacement at 10 µM” value was 11%.
`COC(=O)c1cn(C[C@@]23C[C@@H]2[C@@H](n2cnc4c(N)nc(SC)nc42)[C@H](O)[C@@H]3O)nn1` [Compound 40, Methyl 1-{[(1R,2R,3S,4R,5S)-4-(6-amino-2-methylthio-9H-purin-9-yl)-2,3-dihydroxybicyclo[3.1.0]hex-1-yl]methyl}-1H-1,2,3-triazole-4-carboxylate] returned an inhibition at 10 µM in assay [1] of 8%. The “A2A displacement at 10 µM” value in assay [2] was 3%.

As a reminder, the inhibition is the share of the control response that was lost under treatment. Low values mean little suppression, high ones strong suppression. The Ki is a dissociation constant, usually derived from enzyme kinetics or from competition with a known ligand.
